Measured values reported in patent publication US10501518B2 (priority 2013, dated 2019).
Starred links: 1 amine or outer side, 2 acyl side, 3 side chain; linkers in the order of their positions; H or OH if unused. Non-standard residues stand in square brackets, D forms with d. Residues, ends and D or L forms follow the SMILES beside them. *: point of attachment. NH(1S,2S-2-CONH2-cPent) = NC(=O)[C@H]1CCC[C@@H]1N*; X12 = O=C([C@H]1CCC[C@@H]1N[*:1])[*:2]; X13 = O=C([C@H]1CNC[C@@H]1N[*:1])[*:2]; ACPC(1S,2S) = N[C@H]1CCC[C@@H]1C(=O)*

What was measured:
WT rat PTHR-1 = target: T1, WT rat PTHR-1 (Rattus norvegicus, UniProt P25961); assay: cAMP GloSensor dose-response in GR-35 cells expressing rat PTHR-1; format: cell-based; settings: Table 7; GR-35 cells, 12-16 minutes after ligand addition; mean ± SEM
T1 construct: expressed in transfected cells
T1 sequence (P25961 27-591): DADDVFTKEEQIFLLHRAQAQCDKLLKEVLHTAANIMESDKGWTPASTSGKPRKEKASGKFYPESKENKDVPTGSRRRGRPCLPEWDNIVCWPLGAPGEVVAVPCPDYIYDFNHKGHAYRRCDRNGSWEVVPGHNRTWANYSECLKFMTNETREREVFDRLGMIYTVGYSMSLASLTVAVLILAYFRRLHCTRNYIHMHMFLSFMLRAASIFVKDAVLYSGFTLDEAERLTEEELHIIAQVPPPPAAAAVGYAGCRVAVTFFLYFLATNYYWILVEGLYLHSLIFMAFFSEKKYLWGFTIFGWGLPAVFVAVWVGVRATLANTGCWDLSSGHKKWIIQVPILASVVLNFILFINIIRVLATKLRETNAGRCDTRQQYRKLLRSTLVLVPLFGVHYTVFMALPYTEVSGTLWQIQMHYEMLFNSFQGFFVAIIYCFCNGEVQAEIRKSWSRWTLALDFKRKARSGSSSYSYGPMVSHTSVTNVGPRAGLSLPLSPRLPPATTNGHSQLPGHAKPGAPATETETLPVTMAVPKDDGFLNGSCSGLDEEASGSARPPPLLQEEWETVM
Procedure: FIGS. 9A, 9B, and 9C constitute a series of graphs depicting cAMP responses in GR-35 cells expressing rat PTHR-1-WT. […] Data are means (±SEM) of n>4 experiments, each performed in duplicate.
(§1) For cAMP dose-response assays, monolayers of confluent HEK 293 cells were pre-incubated with buffer containing d-luciferin (0.5 mM) in 96 well plates at room temperature until a stable baseline level of luminescence was established (30 min). Varying concentrations of agonist were then added, and the time course of luminescence response was recorded using a Perkin Elmer plate reader following α/β-peptide addition.

R^0 form of rat PTHR-1 = target: T2, R^0 form of rat PTHR-1 (Rattus norvegicus, UniProt P25961); assay: Radio-ligand competition binding to R^0 form of rat PTHR-1; settings: Table 5; rat PTHR-1; mean ± SEM; read-out: R^0 -log (IC50) (converted)
T2 construct: expressed in transfected cells; host or cells: COS-7
T2 sequence (P25961 27-591): T1 sequence (P25961 27-591)
Source text: Data are means (±SEM) of n≥4 experiments, each performed in duplicate.

WT human PTHR-1 = target: T3, WT human PTHR-1 (Homo sapiens, UniProt Q03431); assay: cAMP GloSensor dose-response in GP-2.3 cells expressing human PTHR-1; format: cell-based
T3 construct: bioactivity of the resulting compound in full-length hPTHR-1 and a truncated version; expressed in transfected cells
T3 sequence (Q03431 27-593): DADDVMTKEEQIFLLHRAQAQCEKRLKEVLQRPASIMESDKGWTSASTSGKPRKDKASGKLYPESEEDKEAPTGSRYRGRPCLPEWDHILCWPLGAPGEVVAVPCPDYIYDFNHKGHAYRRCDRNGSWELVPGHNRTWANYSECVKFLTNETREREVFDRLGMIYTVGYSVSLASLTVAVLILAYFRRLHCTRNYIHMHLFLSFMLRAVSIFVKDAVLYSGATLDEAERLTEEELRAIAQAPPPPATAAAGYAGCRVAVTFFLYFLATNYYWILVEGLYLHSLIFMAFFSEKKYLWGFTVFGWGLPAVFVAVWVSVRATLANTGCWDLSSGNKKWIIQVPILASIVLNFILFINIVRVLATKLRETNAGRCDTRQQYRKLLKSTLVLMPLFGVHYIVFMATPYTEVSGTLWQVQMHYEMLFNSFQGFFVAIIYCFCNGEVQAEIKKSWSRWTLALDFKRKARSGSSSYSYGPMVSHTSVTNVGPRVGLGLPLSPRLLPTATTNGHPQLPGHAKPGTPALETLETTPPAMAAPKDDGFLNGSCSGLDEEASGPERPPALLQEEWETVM
Procedure: FIGS. 8A, 8B, and 8C constitute a series of graphs depicting cAMP responses in GP-2.3 cells expressing wild-type human parathyroid hormone receptor 1 (PTHR-1-WT). […] Data are means (±SEM) of n>4 experiments, each performed in duplicate.
as §1

PTH2R/PTH1R = assay: cAMP response selectivity between PTH2R and PTH1R; format: cell-based; settings: most selective; for cAMP response PTH2R/PTH1R: Table 16; for cAMP response PTH1R/PTH2R: Table 17
Source text: Selected analogs containing beta-amino acid substitutions selectively signal through one or the other of the two receptors. Without being bound to any underling biological phenomenon or mechanism, PTHR-2 likely serves an alternative function to PTHR-1 as it is highly expressed in the central nervous system. In contrast, PTHR-1 is highly expressed in bone and kidney, but not in the CNS. The analogs disclosed herein are thus useful as therapeutic compounds that a specific agonists or antagonists of PTHR-1 and PTHR-2.

PTHR = target: T4, PTHR (Homo sapiens, UniProt Q03431); assay: cAMP induction potency, N-terminal modifications and cyclic constraints (Tables 9, 10, 13); format: cell-based; settings: Table 9
T4 construct: expressed in transfected cells
T4 sequence (Q03431 27-593): T3 sequence (Q03431 27-593)

delNT PTHR1 = target: T5, delNT PTHR1 (Homo sapiens, UniProt Q03431, DEL24-181); assay: cAMP-inducing potency at truncated receptor delNT PTHR1; format: cell-based
T5 construct: expressed in transfected cells
T5 sequence (Q03431 with tags, fused parts or gaps DEL24-181): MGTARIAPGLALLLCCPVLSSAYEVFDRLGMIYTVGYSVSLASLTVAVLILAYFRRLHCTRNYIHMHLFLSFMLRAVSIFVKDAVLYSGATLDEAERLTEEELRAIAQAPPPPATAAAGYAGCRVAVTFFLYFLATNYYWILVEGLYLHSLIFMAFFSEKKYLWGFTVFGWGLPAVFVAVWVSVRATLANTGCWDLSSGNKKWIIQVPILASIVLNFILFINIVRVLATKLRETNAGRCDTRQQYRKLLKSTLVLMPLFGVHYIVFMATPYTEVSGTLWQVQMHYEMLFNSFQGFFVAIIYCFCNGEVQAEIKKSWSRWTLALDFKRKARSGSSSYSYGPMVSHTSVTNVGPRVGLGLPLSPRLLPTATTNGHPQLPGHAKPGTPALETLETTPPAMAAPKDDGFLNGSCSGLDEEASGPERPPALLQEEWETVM

With `CC[C@H](C)[C@H](NC(=O)[C@H](CCC(=O)O)NC(=O)[C@H](CO)NC(=O)[C@@H](NC(=O)[C@@H](N)CO)C(C)C)C(=O)N[C@@H](CCC(N)=O)C(=O)N[C@@H](CC(C)C)C(=O)N[C@@H](CCSC)C(=O)N[C@@H](Cc1c[nH]cn1)C(=O)N[C@@H](CC(N)=O)C(=O)N[C@@H](CC(C)C)C(=O)NCC(=O)N[C@@H](CCCCN)C(=O)N[C@@H](Cc1c[nH]cn1)C(=O)N[C@@H](CC(C)C)C(=O)N[C@@H](CC(N)=O)C(=O)N[C@@H](CO)C(=O)N[C@@H](CCSC)C(=O)N[C@@H](CCC(=O)O)C(=O)N[C@@H](CCCNC(=N)N)C(=O)N[C@H](C(=O)N[C@@H](CCC(=O)O)C(=O)N[C@@H](Cc1c[nH]c2ccccc12)C(=O)N[C@@H](CC(C)C)C(=O)N[C@@H](CCCNC(=N)N)CC(=O)N[C@@H](CCCCN)C(=O)N[C@@H](CCCCN)C(=O)N[C@@H](CC(C)C)C(=O)N[C@@H](CCC(N)=O)CC(=O)N[C@@H](CC(=O)O)C(=O)N[C@H](C(=O)N[C@@H](Cc1c[nH]cn1)C(=O)N[C@@H](CC(N)=O)CC(=O)N[C@@H](Cc1ccccc1)C(N)=O)C(C)C)C(C)C` [C3] the Max (WT rat PTHR-1) was 68 ± 77 luminescence counts per second × 10−3, the IC50 (R^0 form of rat PTHR-1) was 4.57 nM and the EC50 (WT human PTHR-1; Table 1, GP-2.3 cells, read-out: cAMP (hPTHR-1) EC50) was 0.58 nM. For the same compound, the “cAMP (hPTHR-1) Max” value (WT human PTHR-1; Table 1, luminescence counts per second relative to PTH(1-34), 12-16 minutes after ligand addition) was 1.03, the Max (WT human PTHR-1; Table 6, GP-2.3 cells, 12-16 minutes after ligand addition, mean ± SEM) was 223 ± 14 luminescence counts per second × 10^−3 and the “agonist activity at hPTHR-1 (cAMP response), in words” value (WT human PTHR-1; maximum cAMP response compared with PTH(1-34)) was “full agonists of hPTHR-1”.

With `CSCC[C@H](NC(=O)[C@H]1CCC[C@@H]1NC(=O)[C@H](CCC(N)=O)NC(=O)[C@H]1CCC[C@@H]1NC(=O)[C@H](CCC(=O)O)NC(=O)[C@H](CO)NC(=O)[C@@H](NC(=O)[C@H]1CCC[C@@H]1N)C(C)C)C(=O)N[C@@H](Cc1c[nH]cn1)C(=O)N[C@@H](CC(N)=O)C(=O)N[C@@H](CC(C)C)C(=O)NCC(=O)N[C@@H](CCCCN)C(=O)N[C@H]1CCC[C@@H]1C(=O)N[C@@H](CC(C)C)C(=O)N[C@@H](CC(N)=O)C(=O)N[C@@H](CO)C(=O)N[C@H]1CCC[C@@H]1C(=O)N[C@@H](CCC(=O)O)C(=O)N[C@@H](CCCNC(=N)N)C(=O)N[C@H](C(=O)N[C@H]1CNC[C@@H]1C(=O)N[C@@H](Cc1c[nH]c2ccccc12)C(=O)N[C@@H](CC(C)C)C(=O)N[C@@H](CCCNC(=N)N)C(=O)N[C@H]1CNC[C@@H]1C(=O)N[C@@H](CCCCN)C(=O)N[C@@H](CC(C)C)C(=O)N[C@@H](CCC(N)=O)C(=O)N[C@H]1CCC[C@@H]1C(=O)N[C@H](C(=O)N[C@@H](Cc1c[nH]cn1)C(=O)N[C@@H](CC(N)=O)C(=O)N[C@H]1CCC[C@@H]1C(N)=O)C(C)C)C(C)C` [FcycD6_ACPC(1,5,7), XVSEXQXMHNLGKXLNSXERVZWLRZKLQXVHNX-NH2] ({ACPC(1S,2S)}-VSE[X12]Q[X12]MHNLGK[X12]LNS[X12]ERV[X13]WLR[X13]KLQ[X12]VHN-{NH(1S,2S-2-CONH2-cPent)}; N-terminus assumed) the “cAMP response PTH2R/PTH1R” value (PTH2R/PTH1R) was 45 and the “Fold PTH” value (PTHR) was 234.

With `CC[C@H](C)[C@@H](CC(=O)N[C@@H](CCC(N)=O)C(=O)N[C@@H](CC(C)C)C(=O)N[C@@H](CCSC)C(=O)N[C@@H](Cc1c[nH]cn1)C(=O)N[C@@H](CC(N)=O)C(=O)N[C@@H](CC(C)C)C(=O)NCC(=O)N[C@@H](CCCCN)C(=O)N[C@@H](Cc1c[nH]cn1)C(=O)N[C@@H](CC(C)C)C(=O)N[C@@H](CC(N)=O)C(=O)N[C@@H](CO)C(=O)N[C@@H](CCSC)C(=O)N[C@@H](CCC(=O)O)C(=O)N[C@@H](CCCNC(=N)N)C(=O)N[C@H](C(=O)N[C@@H](CCC(=O)O)C(=O)N[C@@H](Cc1c[nH]c2ccccc12)C(=O)N[C@@H](CC(C)C)C(=O)N[C@@H](CCCNC(=N)N)C(=O)N[C@@H](CCCCN)C(=O)N[C@@H](CCCCN)C(=O)N[C@@H](CC(C)C)C(=O)N[C@@H](CCC(N)=O)C(=O)N[C@@H](CC(=O)O)C(=O)N[C@H](C(=O)N[C@@H](Cc1c[nH]cn1)C(=O)N[C@@H](CC(N)=O)C(=O)N[C@@H](Cc1ccccc1)C(N)=O)C(C)C)C(C)C)NC(=O)[C@H](CCC(=O)O)NC(=O)[C@H](CO)NC(=O)[C@@H](NC(=O)[C@@H](N)CO)C(C)C` [β^3Ile(5)] the “cAMP-inducing potency in delNT PTHR-1, in words” value (delNT PTHR1) was “weak or no potency” and the “deINT PTHR1 EC50, nM (Means ± SEM)” value (delNT PTHR1; Table 8, truncated receptor lacking Ala^24-Arg^181) was “No activity”.

For `CC[C@H](C)[C@H](NC(=O)[C@H](CCC(=O)O)NC(=O)[C@H](CO)NC(=O)[C@@H](NC(=O)[C@@H](N)CO)C(C)C)C(=O)N[C@@H](CCC(N)=O)C(=O)N[C@H](CC(=O)N[C@@H](CCSC)C(=O)N[C@@H](Cc1c[nH]cn1)C(=O)N[C@@H](CC(N)=O)C(=O)N[C@@H](CC(C)C)C(=O)NCC(=O)N[C@@H](CCCCN)C(=O)N[C@@H](Cc1c[nH]cn1)C(=O)N[C@@H](CC(C)C)C(=O)N[C@@H](CC(N)=O)C(=O)N[C@@H](CO)C(=O)N[C@@H](CCSC)C(=O)N[C@@H](CCC(=O)O)C(=O)N[C@@H](CCCNC(=N)N)C(=O)N[C@H](C(=O)N[C@@H](CCC(=O)O)C(=O)N[C@@H](Cc1c[nH]c2ccccc12)C(=O)N[C@@H](CC(C)C)C(=O)N[C@@H](CCCNC(=N)N)C(=O)N[C@@H](CCCCN)C(=O)N[C@@H](CCCCN)C(=O)N[C@@H](CC(C)C)C(=O)N[C@@H](CCC(N)=O)C(=O)N[C@@H](CC(=O)O)C(=O)N[C@H](C(=O)N[C@@H](Cc1c[nH]cn1)C(=O)N[C@@H](CC(N)=O)C(=O)N[C@@H](Cc1ccccc1)C(N)=O)C(C)C)C(C)C)CC(C)C` [β^3Leu(7)], the “cAMP-inducing potency in delNT PTHR-1, in words” value (delNT PTHR1) was “weak or no potency”.

In the case of “hPTHrP(1-36): parathyroid hormone-related protein fragment, comparator in the PTH2R/PTH1R cAMP response tables”, the “cAMP response PTH2R/PTH1R” value (PTH2R/PTH1R) is reported as 0.04 and the “cAMP response PTH1R/PTH2R” value (PTH2R/PTH1R) is reported as 27.

“hTIP(1-39): comparator peptide in the PTH2R/PTH1R cAMP response tables (SLALADDAAFRERARLLAALERRHWLNSYMHKLLVLDAP)” was tested, and the “cAMP response PTH2R/PTH1R” value (PTH2R/PTH1R) was 165 and the “cAMP response PTH1R/PTH2R” value (PTH2R/PTH1R) was 0.01.
